# Assay results taken from PMC5339268, “Ganoderic Acid A Metabolites and Their Metabolic Kinetics” (Frontiers in Pharmacology, 2017).
# Where two headings read alike, the source gives them in different places.
# What was measured:
# [1] = GAA metabolite identification in rat bile, plasma and urine after intravenous administration (HPLC-DAD-MS/MS); settings: for Detected resource 1, rat bile: rat bile 0–4 h after i.v. GAA 20 mg/kg; for Detected resource 3, rat urine: rat urine 0–4 h after i.v. GAA 20 mg/kg; for Detected resource 2, rat plasma: rat plasma 5 and 30 min after i.v. GAA 20 mg/kg
# Method: Male Sprague-Dawley rats (200 ± 20 g) were supplied by Beijing Vital Laboratory Animal Technology (Beijing, China). The animal experiment was approved by the Animal Ethics Committee at the Institute of Medicinal Plant Development, Chinese Academy of Medical Sciences. […] On the day before the experiment, the rats were suffered with light surgeries. Under anesthesia by an intraperitoneal dose of 10% chloral hydrate at 3.50 ml/kg, a polyethylene catheter (0.50 mm ID, 1.00 mm OD, Portex Limited, Hythe, Kent, England) was cannulated into the right jugular vein for intravenous drug administration and blood collection, and another catheter (0.28 mm ID, 0.61 mm OD, Portex Limited, Hythe, Kent, England) was cannulated into the bile fistul for bile collection. After surgery, the rats were placed individually in metabolism cages and allowed to recover for at least 24 h. The rats were fasted over night with free access to water prior to drug administration.
# GAA (25 mg) was dissolved in 500 μl of physiological saline containing 2% sodium carbonate and diluted with physiological saline to make the volume of 5 ml (Cheng C.-R. et al., [2013]). The solution was given to rats (n = 5) intravenously at 20 mg/kg through the jugular vein catheter. After dosing and blood sample collection, 0.2 ml of normal saline with 20 units of heparin was injected into the body through the catheter to flush the catheter and prevent blood coagulation.
# Rats were held in metabolism cages, blood was collected into heparinized tubes from the jugular vein before (blank) and at 5 and 30 min post dosing, and then centrifuged at 1,500 g for 10 min for plasma separation. At the same time, bile and urine samples were collected before (blank) and over the period of 0–4 h post dosing. All of the collected blank plasma, blank bile, blank urine, dosing plasma, dosing bile or dosing urine from five rats were pooled together respectively and stored at −20°C until assay.
# For plasma, an aliquot of 200 μl sample was mixed with 20 μl HCl solution (1 M), and then extracted with 1.5 ml of ethyl acetate by vortex-mixing for 10 min. The ethyl acetate layer was collected and concentrated to dryness by a vacuum concentrator. The residue was reconstituted in 100 μl 80% methanol and centrifuged at 20,000 g for 15 min. The supernatant was collected for HPLC-DAD-MS/MS assay. For bile, an aliquot of 150 μl sample was mixed with 150 μl 80% methanol and 10 μl 5% formic acid, and then centrifuged at 20,000 g for 15 min. The supernatant was collected for HPLC-DAD-MS/MS assay. For urine, an aliquot of 2 ml sample was loaded on a pretreated ODS-C18 cartridge (Agilent AccuBOND, 500 mg). After washing with 5 ml of water, the cartridge was eluted with 10 ml of methanol. The methanol eluate was collected and concentrated to dryness by a vacuum concentrator at 37°C. The residue was reconstituted in 200 μl 80% methanol and centrifuged at 20,000 g for 15 min, and the supernatant was collected for HPLC-DAD-MS/MS assay.
# The identification of metabolites were conducted by a HPLC-DAD-MS/MS system equipped with an Agilent 1,260 HPLC system (Agilent Technologies, Santa Clara, CA, USA), 1,260 diode array detector (DAD) and 4,500 Q-Trap mass spectrometer with electrospray ionization source (AB SCIEX, Framingham, MA, USA). Chromatographic separation was performed on a C18 column (100 × 4.6 mm, 2.4 μm, BDS hypersil, Thermo, PA) maintained at 40°C. The mobile phase consisted of acetonitrile (A) and 0.1% formic acid aqueous solution (B) with following gradient elution at a flow rate of 0.40 ml/min: 0–10 min, 20–35% A; 10–20 min, 35% A; 20–25 min, 35–65% A; 25–30 min, 65% A; 30–35 min, 65–20% A; and 35–45 min, 20% A. The DAD spectral data was collected from 190 to 400 nm. The injection volume of all the tested samples was 10 μl. Mass data were acquired in negative mode under the following conditions, ion spray voltage −4,500 V, ion source temperature 450°C, curtain gas 10 psi, nebulizer gas 60 psi and auxiliary gas 60 psi.
# [2] = system: human liver microsomes (HLMs); settings: for Vmax of metabolite formation from GAA: HLMs 0.25 mg protein/ml, GAA 1–50 μM, 30 min
# Method: The formation kinetics of the two main reduction metabolites M2 (GAC2) and M4 (7β,15-dihydroxy-3,11,23-trioxo-lanost-26-oic acid) were determined. The incubations were performed in a medium (100 μl) containing 0.25 mg protein /ml RLMs or HLMs, different concentrations of GAA (1–50 μM), 3.3 mM of MgCl2, 3.0 mM of NADPH and 100 mM of sodium phosphate buffer (pH 7.4). After 10 min of preincubation, GAA at each concentration was incubated with RLMs and HLMs for 5 and 30 min, respectively. The reactions were terminated by adding with 100 μl of ice-cold acetonitrile containing 2 μM GLA used as internal standard (IS). After centrifugation, metabolites in the mixture were analyzed by UFLC-MS/MS detection as described below. The metabolite formation rates vs. GAA concentrations were plotted to obtain the Michaelis-Menten constant (Km) and maximum velocity (Vmax) values of the metabolic reactions. Each of the incubations was performed in triplicate.
# The kinetic parameters of GAA metabolism by RLMs or HLMs were calculated by fitting the data to the hyperbolic Michaelis-Menten model: V=Vmax×[S]/Km+[S]
# Where Vmax is the maximal velocity of formation, S is the concentration of substrate, Km is the substrate concentration of half maximal velocity, and the intrinsic clearance (CLint) is calculated as Vmax/Km.
# [3] = system: rat liver microsomes (RLMs)
# Method: (§2) For in vitro metabolites identification, the enzyme incubation was performed in a medium containing 1.0 mg protein /ml RLMs or HLMs, 100 μM of GAA, 3.3 mM of MgCl2, 3.0 mM of NADPH, 3.0 mM of UDPGA and 100 mM of sodium phosphate buffer (pH 7.4). The total volume was 500 μl. The metabolism reaction was initiated by adding NADPH and UDPGA after 10 min preincubation at 37°C. The reaction was maintained at 37°C for 1 h and terminated by adding with 500 μl of ice-cold acetonitrile. The mixture was centrifuged at 20,000 g for 15 min, and 10 μl of the supernatant was directly injected for HPLC-DAD-MS/MS assay. Control samples were prepared as described above by using inactivated enzymes in the incubation system. Each of the incubations was performed in duplicate.
# (§3) The identification of metabolites were conducted by a HPLC-DAD-MS/MS system equipped with an Agilent 1,260 HPLC system (Agilent Technologies, Santa Clara, CA, USA), 1,260 diode array detector (DAD) and 4,500 Q-Trap mass spectrometer with electrospray ionization source (AB SCIEX, Framingham, MA, USA). Chromatographic separation was performed on a C18 column (100 × 4.6 mm, 2.4 μm, BDS hypersil, Thermo, PA) maintained at 40°C. The mobile phase consisted of acetonitrile (A) and 0.1% formic acid aqueous solution (B) with following gradient elution at a flow rate of 0.40 ml/min: 0–10 min, 20–35% A; 10–20 min, 35% A; 20–25 min, 35–65% A; 25–30 min, 65% A; 30–35 min, 65–20% A; and 35–45 min, 20% A. The DAD spectral data was collected from 190 to 400 nm. The injection volume of all the tested samples was 10 μl. Mass data were acquired in negative mode under the following conditions, ion spray voltage −4,500 V, ion source temperature 450°C, curtain gas 10 psi, nebulizer gas 60 psi and auxiliary gas 60 psi. Data were collected using Analyst 1.6.2 (Applied Biosystems) in both first quadrupole (Q1) mass scan mode and multiple reaction monitoring (MRM) independent data acquisition (IDA) mode using enhanced product ion scans (EPI) and enhanced resolution (ER) in the ion trap mode.
# [4] = system: human liver microsomes (HLMs)
# Method: as §2, §3
# CYP3A [5] = experiment: Effect of CYP inhibitors on formation of GAA metabolites in RLMs; assay type: in vitro ADME; settings: rat, rat liver microsomes (RLMs), probe GAA (10 μM), formation of metabolite M2, RLMs 0.25 mg/ml, ketoconazole 10 μM
# Method: (§1) GAA (10 μM) was incubated with 0.25 mg/ml RLMs or HLMs in the incubation system as described in Section Formation Kinetics of the Metabolites M2 and M4, in the present or absent of the following CYP enzymes inhibitors, 10 μM α- naphthoflavone (for CYP1A2), 100 μM ticlopidine (for CYP2C19), 10 μM quinidine (for CYP2D), 10 μM ketoconazole (for CYP3A), 100 μM fluconazole (for CYP2C9) and 100 μM diethyldithiocarbamate (for CYP2E1), respectively. The M2 and M4 formation rates in the present and absent of inhibitors were compared. The percentage of inhibition was calculated. Each of the incubations was performed in triplicate.
# CYP3A [6] = experiment: Effect of CYP inhibitors on formation of GAA metabolites in HLMs; assay type: in vitro ADME; settings: human, human liver microsomes (HLMs), probe GAA (10 μM), ketoconazole 10 μM
# Method: as §1
# [7] = system: rat liver microsomes (RLMs); experiment: Formation kinetics of the metabolites M2 and M4 in RLMs; assay type: in vitro ADME
# Method: Each of the incubations was performed in triplicate.
# [8] = system: rat liver microsomes (RLMs); experiment: In vitro metabolite identification, GAA incubated with RLMs; settings: for Detected resource 4, RLMs: 100 μM GAA, 1.0 mg protein/ml RLMs, NADPH and UDPGA, 37°C, 1 h
# Method: as §2, §3
# [9] = system: human liver microsomes (HLMs); experiment: In vitro metabolite identification, GAA incubated with HLMs; settings: for Detected resource 5, HLMs: 100 μM GAA, 1.0 mg protein/ml HLMs, NADPH and UDPGA, 37°C, 1 h
# Method: as §2, §3
# HepG2 cells = system: HepG2 cells; set-up: method as in Yao et al., 2012; settings: ref Yao et al., 2012; cited from earlier work
# EL4 syngeneic mice = system: EL4 syngeneic mice; set-up: method as in Radwan et al., 2015; settings: ref Radwan et al., 2015, cited from earlier work
structure (smiles),measurement,setting,value
"CC(CC(=O)C[C@@H](C)[C@H]1CC(O[C@@H]2O[C@H](C(=O)O)[C@@H](O)[C@H](O)[C@H]2O)[C@@]2(C)C3=C(C(O)C[C@]12C)[C@@]1(C)CCC(=O)C(C)(C)[C@@H]1CC3=O)C(=O)O (stereo partly shown) [Metabolite M31, 11-hydroxy-3,7,23-trioxo-lanost-8-en-26-oic acid-15-O-glucuronide]","Detected resource 1, rat bile",[1],+
same,"Detected resource 3, rat urine",[1],+
"CC(CC(=O)CC(C)C1CC(O)C2(C)C3C(O)CC4C(C)(C)C(=O)CCC4(C)C3C(=O)CC12C)C(=O)O (stereo not drawn) [Metabolite M4, 7β,15-dihydroxy-3,11,23-trioxo-lanost-26-oic acid]",Vmax of metabolite formation from GAA,[2],29.70 pmol/min/mg
same,CLint of M4 formation higher than that of M2,"[2]; human, pH 7.4",15 fold
same,Clint of metabolite formation from GAA (Vmax/Km),"[2]; human, pH 7.4",4.85 µL/min/mg
same,metabolite found in RLMs incubations,[3],undetected
same,metabolite detected in HLMs incubations,[4],detected
same,relative abundance of metabolite in HLMs incubations,[4],abundant
"CC(CC(=O)CC(C)C1CC(O)C2(C)C3=C(C(=O)C(O)C12C)C1(C)CCC(=O)C(C)(C)C1CC3O)C(=O)O (stereo not shown) [Metabolite M9, 12-hydroxy ganoderic acid A]",metabolite found in RLMs incubations,[3],found
same,metabolite detected in HLMs incubations,[4],detected
"CC(CC(=O)C[C@@H](C)[C@H]1C[C@H](O)[C@@]2(C)C3=C(C(=O)C[C@]12C)[C@@]1(C)CCC(=O)C(C)(C)[C@@H]1CC3=O)C(=O)O (stereo partly shown) [Metabolite M7, Ganoderic acid J]","Detected resource 1, rat bile",[1],+
same,"Detected resource 2, rat plasma",[1],+
same,"Detected resource 3, rat urine",[1],+
"CC(=O)N1CCN(c2ccc(OCC3COC(Cn4ccnc4)(c4ccc(Cl)cc4Cl)O3)cc2)CC1 (stereo not shown) [Ketoconazole, ketoconazole]",inhibition at 10 μM,CYP3A [5],19.9%
same,inhibition at 10 μM,"CYP3A [6]; formation of metabolite M2, HLMs 0.25 mg/ml, read-out: inhibition of the formation of M2 in HLMs",56%
same,inhibition at 10 μM,"CYP3A [6]; formation of metabolite M4, HLMs 0.25 mg/ml, read-out: inhibition of the formation of M4 in HLMs",38.2%
"CC(CC(=O)CC(C)C1CC(O)C2(C)C3=C(C(=O)C(O)C12C)C1(C)CCC(O)C(C)(C)C1CC3O)C(=O)O (stereo not shown) [Metabolite M15, 12-hydroxy ganoderic acid C2]",metabolite found in RLMs incubations,[3],detected
"C[C@H](CC(=O)C[C@@H](C)[C@H]1C[C@H](O[C@@H]2O[C@H](C(=O)O)[C@@H](O)[C@H](O)[C@H]2O)[C@@]2(C)C3=C(C(=O)C[C@]12C)[C@@]1(C)CCC(=O)C(C)(C)[C@@H]1C[C@@H]3O)C(=O)O [Metabolite M30, Ganoderic acid A 15-O-glucuronide]","Detected resource 1, rat bile",[1],+
same,"Detected resource 3, rat urine",[1],+
"C[C@H](CC(=O)C[C@@H](C)[C@H]1C[C@H](O)[C@@]2(C)C3=C(C(=O)C[C@]12C)[C@@]1(C)CC[C@H](O)C(C)(C)[C@@H]1C[C@@H]3O)C(=O)O [Metabolite M2, Ganoderic acid C2]",Vmax of metabolite formation from GAA,"[7]; RLMs 0.25 mg protein/ml, GAA 1–50 μM, 5 min",185.81 pmol/min/mg
same,CLint by RLMs higher than by HLMs,[7]; ratio RLMs vs HLMs,20 fold
same,Vmax by RLMs higher than by HLMs,[7]; ratio RLMs vs HLMs,6 fold
same,Vmax of metabolite formation from GAA,[2],30.18 pmol/min/mg
same,Clint of metabolite formation from GAA (Vmax/Km),"[2]; human, pH 7.4",0.33 µL/min/mg
same,Km of M2 higher than that of M4,"[2]; in HLMs, ratio M2 vs M4",15 fold
same,Km by HLMs higher than by RLMs,[2]; ratio HLMs vs RLMs,approximately 3 fold
same,relative abundance of metabolite in RLMs incubations,[3],most abundant
same,metabolite detected in HLMs incubations,[4],detected
same,relative abundance of metabolite in HLMs incubations,[4],abundant
"CC(CC(=O)C[C@@H](C)[C@H]1CC(=O)[C@@]2(C)C3=C(C(=O)C[C@]12C)[C@@]1(C)CC[C@H](O)C(C)(C)[C@@H]1C[C@@H]3O)C(=O)O (stereo partly shown) [Metabolite M18, Ganoderic acid B]","Detected resource 1, rat bile",[1],+
same,"Detected resource 2, rat plasma",[1],+
"C[C@H](CC(=O)C[C@@H](C)[C@H]1C[C@H](O)[C@@]2(C)C3=C(C(=O)C[C@]12C)[C@@]1(C)CC[C@H](O[C@@H]2O[C@H](C(=O)O)[C@@H](O)[C@H](O)[C@H]2O)C(C)(C)[C@@H]1C[C@@H]3O)C(=O)O [Metabolite M25, Ganoderic acid C2 3-O-glucuronide]","Detected resource 1, rat bile",[1],+
same,"Detected resource 4, RLMs",[8],+
same,metabolite found in RLMs incubations,[8],detected
"CC(CC(=O)C[C@@H](C)[C@H]1CC(O)[C@@]2(C)C3=C(C(O[C@@H]4O[C@H](C(=O)O)[C@@H](O)[C@H](O)[C@H]4O)C[C@]12C)[C@@]1(C)CCC(=O)C(C)(C)[C@@H]1CC3=O)C(=O)O (stereo partly shown) [Metabolite M29, 15-hydroxy-3,7,23-trioxo-lanost-8-en-26-oic acid-11-O-glucuronide]","Detected resource 1, rat bile",[1],+
same,"Detected resource 2, rat plasma",[1],+
same,"Detected resource 3, rat urine",[1],+
"C[C@H](CC(=O)C[C@@H](C)[C@H]1C[C@H](O)[C@@]2(C)C3=C(C(=O)C[C@]12C)[C@@]1(C)CCC(=O)C(C)(C)[C@@H]1C[C@@H]3O[C@@H]1O[C@H](C(=O)O)[C@@H](O)[C@H](O)[C@H]1O)C(=O)O [Metabolite M28, Ganoderic acid A 7-O-glucuronide]","Detected resource 1, rat bile",[1],+
same,"Detected resource 2, rat plasma",[1],+
same,"Detected resource 3, rat urine",[1],+
same,"Detected resource 4, RLMs",[8],+
same,metabolite found in RLMs incubations,[8],found
same,"Detected resource 5, HLMs",[9],+
same,metabolite detected in HLMs incubations,[9]; HLMs incubations,detected
"C[C@H](CC(=O)C[C@@H](C)[C@H]1C[C@H](O[C@@H]2O[C@H](C(=O)O)[C@@H](O)[C@H](O)[C@H]2O)[C@@]2(C)C3=C(C(=O)C[C@]12C)[C@@]1(C)CC[C@H](O)C(C)(C)[C@@H]1C[C@@H]3O)C(=O)O [Metabolite M27, Ganoderic acid C2 15-O-glucuronide]","Detected resource 1, rat bile",[1],+
"C[C@H](CC(=O)C[C@@H](C)[C@H]1C[C@H](O)[C@@]2(C)C3=C(C(=O)C[C@]12C)[C@@]1(C)CC[C@H](O)C(C)(C)[C@@H]1C[C@@H]3O[C@@H]1O[C@H](C(=O)O)[C@@H](O)[C@H](O)[C@H]1O)C(=O)O [Metabolite M26, Ganoderic acid C2 7-O-glucuronide]","Detected resource 1, rat bile",[1],+
"CC(CC(=O)CC(C)C1CC(O)C2(C)C3=C(C(=O)CC12C)C1(C)CCC(=O)C(C)(CO)C1CC3O)C(=O)O (stereo not shown) [Metabolite M35, 28(29)-hydroxy ganoderic acid A]",metabolite detected in HLMs incubations,[4],detected
"CC(CC(=O)CC(C)(O)C1CC(O)C2(C)C3=C(C(=O)CC12C)C1(C)CCC(=O)C(C)(C)C1CC3O)C(=O)O (stereo not shown) [Metabolite M11, 20-hydroxy ganoderic acid A]",metabolite found in RLMs incubations,[3],found
same,metabolite detected in HLMs incubations,[4],detected
"C[C@H](CC(=O)C[C@@H](C)[C@H]1C[C@H](O)[C@@]2(C)C3=C(C(=O)C[C@]12C)[C@@]1(C)CCC(=O)C(C)(C)[C@@H]1C[C@@H]3O)C(=O)O [Metabolite M0, Ganoderic acid A]","Detected resource 1, rat bile",[1],+
same,"Detected resource 2, rat plasma",[1],+
same,"Detected resource 3, rat urine",[1],+
same,"Detected resource 4, RLMs",[8],+
same,chemosensitivity of HepG2 cells to Cisplatin,HepG2 cells,enhance chemosensitivity
same,tumor metastasis to the liver,EL4 syngeneic mice; EL4 syngeneic mice,decrease tumor metastasis to the liver
same,survival of EL4 syngeneic mice,EL4 syngeneic mice,significantly prolong the survival
same,"Detected resource 5, HLMs",[9],+
"CC(CC(=O)CC(C)C1CC(O)C2(C)C3=C(C(=O)CC12C)C1(C)CCC(O)C(C)(CO)C1CC3O)C(=O)O (stereo not drawn) [Metabolite M13, 3,7β,15,28(29)-tetrahydroxy-11, 23-dioxo-lanost-8-en-26-oic acid]",metabolite found in RLMs incubations,[3],detected
